{
  "source": "patent US10703765B2",
  "about": "(priority 2014, dated 2020)",
  "note": "pKi: −log10 of the molar value. Counter-ions that a name gives are not always drawn.",
  "data": [
    {"biological_target": "human σ1 receptor (Homo sapiens, UniProt Q99720)", "sequence (Q99720 whole entry)": "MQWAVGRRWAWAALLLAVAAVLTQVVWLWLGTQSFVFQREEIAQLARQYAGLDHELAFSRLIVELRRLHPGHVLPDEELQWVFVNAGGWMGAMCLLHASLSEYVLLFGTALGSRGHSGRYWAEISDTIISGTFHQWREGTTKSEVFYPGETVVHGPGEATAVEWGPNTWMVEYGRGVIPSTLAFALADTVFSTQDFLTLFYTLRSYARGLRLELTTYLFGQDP", "test": "biochemical", "type": "binding", "set-up": "μ and σ1 dual binding: key to the marks not given beside the values", "conditions": "not given", "values": [
      {"smiles": "CC1OC2(CCN(CCc3ccc(N)cc3)CC2)CN(c2ccccc2)C1=O", "note": "(stereo not drawn) [Example 228, 9-(4-aminophenethyl)-2-methyl-4-phenyl-1-oxa-4,9-diazaspiro[5.5]undecan-3-one]", "pKi": "> 6.30"},
      {"smiles": "CC1OC2(CCN(CCc3ccccc3N)CC2)CN(c2ccccc2)C1=O", "note": "(stereo not drawn) [Example 229, 9-(2-aminophenethyl)-2-methyl-4-phenyl-1-oxa-4,9-diazaspiro[5.5]undecan-3-one]", "pKi": "> 7.00"},
      {"smiles": "CC1OC2(CCN(CCc3cccnc3N)CC2)CN(c2ccccc2)C1=O", "note": "(stereo not drawn) [Example 234, 9-(2-(2-aminopyridin-3-yl)ethyl)-2-methyl-4-phenyl-1-oxa-4,9-diazaspiro[5.5]undecan-3-one hydrochloride]", "pKi": "> 6.30"},
      {"smiles": "CC(C)C1OC2(CCN(CCc3cccnc3N)CC2)CN(c2ccccc2F)C1=O", "note": "(stereo not drawn) [Example 238, 9-(2-(2-aminopyridin-3-yl)ethyl)-4-(2-fluorophenyl)-2-isopropyl-1-oxa-4,9-diazaspiro[5.5]undecan-3-one dihydrochloride]", "pKi": "> 7.00"}
    ]},
    {"biological_target": "human σ1 receptor (Homo sapiens, UniProt Q99720)", "test": "biochemical", "type": "binding", "set-up": "μ and σ1 dual binding: key to the marks not given beside the values", "conditions": "combined class from Ki-σ1 (human σ1 receptor, A1) and Ki-μ (human μ-opioid receptor, A2) radioligand binding", "values": [
      {"smiles": "CC1OC2(CCN(CCc3ccc(N)cn3)CC2)CN(c2ccccc2F)C1=O", "note": "(stereo not drawn) [Example 230, 9-(2-(5-aminopyridin-2-yl)ethyl)-4-(2-fluorophenyl)-2-methyl-1-oxa-4,9-diazaspiro[5.5]undecan-3-one]", "μ and σ1 dual binding": "++"},
      {"smiles": "CC1OC2(CCN(CCc3ncccc3N)CC2)CN(c2ccccc2F)C1=O", "note": "(stereo not drawn) [Example 232, 9-(2-(3-aminopyridin-2-yl)ethyl)-4-(2-fluorophenyl)-2-methyl-1-oxa-4,9-diazaspiro[5.5]undecan-3-one]", "μ and σ1 dual binding": "++"}
    ]},
    {"biological_target": "human σ1 receptor (Homo sapiens, UniProt Q99720)", "test": "biochemical", "type": "binding", "set-up": "μ and σ1 dual binding: key to the marks not given beside the values", "conditions": "read-out: μ and σ1 dual binding", "values": [
      {"smiles": "CC1OC2(CCN(CCc3ccccc3)CC2)CN(c2cnccc2C(F)(F)F)C1=O", "note": "(stereo not drawn) [Example 214, 2-methyl-9-phenethyl-4-(4-(trifluoromethyl)pyridin-3-yl)-1-oxa-4,9-diazaspiro[5.5]undecan-3-one hydrochloride]", "pKi": "> 7.00"},
      {"smiles": "CC1OC2(CCN(CCc3ccccc3)CC2)CN(c2cccnc2C(F)(F)F)C1=O", "note": "(stereo not drawn) [Example 215, 2-methyl-9-phenethyl-4-(2-(trifluoromethyl)pyridin-3-yl)-1-oxa-4,9-diazaspiro[5.5]undecan-3-one hydrochloride]", "pKi": "> 6.30"},
      {"smiles": "CC1OC2(CCN(CCc3ccccc3)CC2)CN(c2cncc(F)c2)C1=O", "note": "(stereo not drawn) [Example 216, 4-(5-fluoropyridin-3-yl)-2-methyl-9-phenethyl-1-oxa-4,9-diazaspiro[5.5]undecan-3-one hydrochloride]", "pKi": "> 6.30"},
      {"smiles": "CC1OC2(CCN(CCc3ccccc3)CC2)CN(c2cncc(C(F)(F)F)c2)C1=O", "note": "(stereo not drawn) [Example 217, 2-methyl-9-phenethyl-4-(5-(trifluoromethyl)pyridin-3-yl)-1-oxa-4,9-diazaspiro[5.5]undecan-3-one hydrochloride]", "pKi": "> 6.30"},
      {"smiles": "CC1OC2(CCN(CCc3ccccc3)CC2)CN(c2ncccc2C(F)(F)F)C1=O", "note": "(stereo not drawn) [Example 218, 2-methyl-9-phenethyl-4-(3-(trifluoromethyl)pyridin-2-yl)-1-oxa-4,9-diazaspiro[5.5]undecan-3-one]", "pKi": "> 6.30"},
      {"smiles": "O=C1N(c2cccnc2C(F)(F)F)CC2(CCN(CCc3ccccc3F)CC2)OC12CC2", "note": "[Example 219, 8-(2-fluorophenethyl)-12-(2-(trifluoromethyl)pyridin-3-yl)-4-oxa-8,12-diazadispiro[2.1.5.3]tridecan-13-one]", "pKi": "> 6.30"},
      {"smiles": "O=C1N(c2ncccc2C(F)(F)F)CC2(CCN(CCc3ccccc3F)CC2)OC12CC2", "note": "[Example 220, 8-(2-fluorophenethyl)-12-(3-(trifluoromethyl)pyridin-2-yl)-4-oxa-8,12-diazadispiro[2.1.5.3]tridecan-13-one hydrochloride]", "pKi": "> 6.30"},
      {"smiles": "CC1OC2(CCN(CCc3ccccc3F)CC2)CN(c2ncccc2C(F)(F)F)C1=O", "note": "(stereo not drawn) [Example 221, 9-(2-fluorophenethyl)-2-methyl-4-(3-(trifluoromethyl)pyridin-2-yl)-1-oxa-4,9-diazaspiro[5.5]undecan-3-one]", "pKi": "> 6.30"},
      {"smiles": "C[C@H]1OC2(CCN(CCc3ccccc3F)CC2)CN(c2ncccc2C(F)(F)F)C1=O", "note": "[Example 222a, (R)-9-(2-fluorophenethyl)-2-methyl-4-(3-(trifluoromethyl)pyridin-2-yl)-1-oxa-4,9-diazaspiro[5.5]undecan-3-one]", "pKi": "> 6.30"},
      {"smiles": "C[C@@H]1OC2(CCN(CCc3ccccc3F)CC2)CN(c2ncccc2C(F)(F)F)C1=O", "note": "[Example 222b, (S)-9-(2-fluorophenethyl)-2-methyl-4-(3-(trifluoromethyl)pyridin-2-yl)-1-oxa-4,9-diazaspiro[5.5]undecan-3-one]", "pKi": "< 6.30"},
      {"smiles": "O=C1N(c2cnccc2C(F)(F)F)CC2(CCN(CCc3ccccc3F)CC2)OC12CC2", "note": "[Example 223, 8-(2-fluorophenethyl)-12-(4-(trifluoromethyl)pyridin-3-yl)-4-oxa-8,12-diazadispiro[2.1.5.3]tridecan-13-one hydrochloride]", "pKi": "> 7.00"},
      {"smiles": "O=C1N(c2ccccc2F)CC2(CCN(CCc3ccccc3)CC2)OC12CC2", "note": "[Example 224, 12-(2-fluorophenyl)-8-phenethyl-4-oxa-8,12-diazadispiro[2.1.5.3]tridecan-13-one]", "pKi": "> 7.00"},
      {"smiles": "O=C1N(c2ccccc2)CC2(CCN(CCc3ccccc3)CC2)OC12CC2", "note": "[Example 225, 8-phenethyl-12-phenyl-4-oxa-8,12-diazadispiro[2.1.5.3]tridecan-13-one]", "pKi": "> 7.00"},
      {"smiles": "CC1OC2(CCN(CCc3cccc(N)c3)CC2)CN(c2ccccc2)C1=O", "note": "(stereo not drawn) [Example 226, 9-(3-aminophenethyl)-2-methyl-4-phenyl-1-oxa-4,9-diazaspiro[5.5]undecan-3-one]", "pKi": "> 7.00"},
      {"smiles": "CC1OC2(CCN(CCc3ccccc3)CC2)CN(c2cccc(N)c2)C1=O", "note": "(stereo not drawn) [Example 227, 4-(3-aminophenyl)-2-methyl-9-phenethyl-1-oxa-4,9-diazaspiro[5.5]undecan-3-one]", "pKi": "< 6.30"},
      {"smiles": "Nc1cccc(CCN2CCC3(CC2)CN(c2ccccc2)C(=O)C2(CC2)O3)c1", "note": "[Example 231, 8-(3-aminophenethyl)-12-phenyl-4-oxa-8,12-diazadispiro[2.1.5.3]tridecan-13-one]", "pKi": "< 6.30"},
      {"smiles": "Nc1cccc(CN2CC3(CCN(CCc4ccccc4)CC3)OCC2=O)c1", "note": "[Example 233, 4-(3-aminobenzyl)-9-phenethyl-1-oxa-4,9-diazaspiro[5.5]undecan-3-one hydrochloride]", "pKi": "> 6.30"},
      {"smiles": "Nc1cccc(CCN2CCC3(CC2)CN(Cc2ccc(C(F)(F)F)cn2)C(=O)CO3)c1", "note": "[Example 235, 9-(3-aminophenethyl)-4-((5-(trifluoromethyl)pyridin-2-yl)methyl)-1-oxa-4,9-diazaspiro[5.5]undecan-3-one]", "pKi": "< 6.30"},
      {"smiles": "CC1OC2(CCN(CCc3ccc(N)cn3)CC2)CN(c2ccccc2)C1=O", "note": "(stereo not drawn) [Example 236, 9-(2-(5-aminopyridin-2-yl)ethyl)-2-methyl-4-phenyl-1-oxa-4,9-diazaspiro[5.5]undecan-3-one]", "pKi": "< 6.30"},
      {"smiles": "CC1OC2(CCN(CCn3ccc(N)n3)CC2)CN(c2ccccc2)C1=O", "note": "(stereo not drawn) [Example 237, 9-(2-(3-amino-1H-pyrazol-1-yl)ethyl)-2-methyl-4-phenyl-1-oxa-4,9-diazaspiro[5.5]undecan-3-one hydrochloride]", "pKi": "< 6.30"},
      {"smiles": "Nc1cccc(CCN2CCC3(CC2)CN(Cc2ccc(C(F)(F)F)cn2)C(=O)C2(CC2)O3)c1", "note": "[Example 239, 8-(3-aminophenethyl)-12-{[5-(trifluoromethyl)pyridin-2-yl]methyl}-4-oxa-8,12-diazadispiro[2.1.5.3]tridecan-13-one]", "pKi": "< 6.30"}
    ]}
  ]
}
